Values after ≈ are worked out from the molar mass of the structure shown.
Tests used:
Test in all cases: MIC by agar-dilution, Diagnostic Sensitivity Test agar
Type in all cases: cell-based
[1] = tested on: B. fragilis AMP R (542008); details: Bacteroides fragilis, inoculum 10^4 CFU/spot
From the text: (§1) The following results were obtained for representative compounds on a standard in vitro test system using Diagnostic Sensitivity Test agar medium. The antibacterial activity is described in terms of the minimum inhibitory concentration (MIC) determined by the agar-dilution technique with an inoculum size of 10^4 CFU/spot.

E.coli DCO (341098) = details: Escherichia coli, inoculum 10^4 CFU/spot
From the text: as §1

[2] = tested on: Ent.cloacae P99^- (401054); details: Enterobacter cloacae
From the text: as §1

[3] = tested on: P. aeruginosa 18S (101024); details: Pseudomonas aeruginosa, inoculum 10^4 CFU/spot
From the text: as §1

[4] = tested on: P.aeruginosa PU21 (101028); details: Pseudomonas aeruginosa, inoculum 10^4 CFU/spot
From the text: as §1

Pr.morganii (433001) = details: Morganella morganii, inoculum 10^4 CFU/spot
From the text: as §1

S.dublin (369001) = details: Salmonella enterica, inoculum 10^4 CFU/spot
From the text: as §1

Serr.marcesens (421003) = details: inoculum 10^4 CFU/spot
From the text: as §1

St.aureus 147N (601052) = details: Staphylococcus aureus, inoculum 10^4 CFU/spot
From the text: as §1

Strep.pyogenes (681018) = details: Streptococcus pyogenes, inoculum 10^4 CFU/spot
From the text: as §1

For `C[C@@H](O)[C@H]1C(=O)N2C(C(=O)O)=C(S[C@@H]3CN[C@H](C(=O)Nc4cc(O)c(O)c(C#N)c4)C3)[C@H](C)[C@H]12` [Example 2, (1R,5S,6S,8R,2'S,4'S)-2-(2-(5-Cyano-3,4-dihydroxyphenylcarbamoyl)pyrrolidin-4-ylthio)-6-(1-hydroxyethyl)-1-methyl-carbapenem-3-carboxylic acid], the MIC [1] was 0.25 µg/mL (≈ 0.512 µM), the MIC (E.coli DCO (341098)) was 0.015 µg/mL (≈ 0.0307 µM) and the MIC [2] was 0.015 µg/mL (≈ 0.0307 µM). The MIC [3] was 0.06 µg/mL (≈ 0.123 µM), the MIC [4] was 0.25 µg/mL (≈ 0.512 µM) and the MIC (Pr.morganii (433001)) was 0.125 µg/mL (≈ 0.256 µM). For the same molecule, the MIC (S.dublin (369001)) was 0.008 µg/mL (≈ 0.0164 µM), the MIC (Serr.marcesens (421003)) was 0.125 µg/mL (≈ 0.256 µM) and the MIC (St.aureus 147N (601052)) was 0.25 µg/mL (≈ 0.512 µM). For the same molecule, the MIC (Strep.pyogenes (681018)) was 0.008 µg/mL (≈ 0.0164 µM).
